Test results published in paper PMC11459959, “Discovery of new acetamide derivatives of 5-indole-1,3,4-oxadiazol-2-thiol as inhibitors of HIV-1 Tat-mediated viral transcription” (Antimicrobial Agents and Chemotherapy, 2024).
Where two headings read alike, the source gives them in different places.

How the values were obtained:
[1] = tested on: NNRTI-resistant HIV-1 strain 12241; assay: microbe, parasite or virus in culture; format: cell-based; settings: Human immunodeficiency virus 1, TZM-bl
Description: (§1) Fig 7 (A–C) TZM-bl cells (1 × 10^4 cells/well) cultured in a 96-well plate were treated with fivefold serial dilutions of the indicated compound or ARV for 1 h before infection with the HIV-1NL4-3 or ARV-resistant HIV-1 strains at an MOI of 1, respectively. At 48 h after infection, the EC50 values were determined using an F-Luc activity. The symbols represent the fold-change values of EC50 against each mutant virus relative to the wild-type (WT) virus. (D) PBMCs (5 × 10^4 cells/well) were infected with the HIV-1NL4-3 and PIs-resistant HIV-1 strain at an MOI of 0.1, respectively. Subsequently, the PBMCs were treated with 10-fold serial dilutions of the indicated compounds or PI. At 3 days after infection, the EC50 values on the viral replication were determined using a p24 […] assay kit. (E) The inhibitory kinetics for the WT and ARV-resistant viruses. TZM-bl cells infected with WT or ARV-resistant viruses were cultured upon fivefold serial dilutions of each compound for 2 days and the infectivity was determined using an F-Luc activity.
(§2) The Tzm-bl-derived dual Tat reporter; TZM-bl/Tat/Rluc (bl-DTR) cells were established from TZM-bl cells using two Dox-inducible lentiviral expression cassettes cloned with Flag-tagged Tat86 and the R-Luc gene, as described in our previous study ([11]). TZM-bl, A3.01, J1.1, and J-Lat 6.3 cells as well as the HIV-1 molecular clone pNL4-3, pNL(AD8), ARV-resistant HIV-1 strains, and HIV-1NL43-IRES-eGFP (pBR43IeG-nef^+, gifted by Dr. Frank Kirchhoff) ([52]) were provided by the National Institute of Health HIV Reagent Program (NIH, Bethesda, MD, USA). HeLa (CCL-2) and 293T (CRL-3216) cell lines were purchased from the American Type Culture Collection (ATCC, Manassas, VA, USA). The bl-DTR, TZM-bl, HeLa, and 293T cells were cultured in Dulbecco’s modified Eagle’s medium supplemented with 1% penicillin–streptomycin and 10% (vol/vol) heat-inactivated fetal bovine serum (all from Gibco-BRL, Gaithersburg, MD, USA), and 1 µg/mL of puromycin and 200 µg/mL of zeocin were additionally supplemented for the bl-DTR cells. PBMCs were purchased from AllCells (Alameda, CA, USA) and cultured as previously described ([12]). The information on ARV-resistant HIV-1 strains was described in previous reports as follows: NNRTI-resistant 12241 and 12243 ([53]); NRTI-resistant 7396, 7406, and 7407 ([54]); INSTI-resistant 11847 and 11849 ([55], [56]); and PI-resistant 11800 and 11803 ([57]). Each molecular HIV-1 clone was transfected to 293T cells, as previously described ([58]), to obtain infectious HIV-1 particles. Virus-containing cell culture supernatants were collected 3 days after transfection, and filtered through a 0.45-µm membrane filter (Millipore Sigma, Burlington, MA, USA) to remove cell debris. The viral titration was performed as described previously ([59]) with some minor modifications. In brief, 1 × 10^4 TZM-bl cells seeded in 96-well plates were infected with 200 µL of virus-containing medium diluted serially twofold. The incubation was for 2 days and the experiment was performed in triplicate; the infection time minimized the virus spread ([59]). The titration of the infectious viral particles was performed with a ß-Gal staining assay using the ßeta-Galactosidase Staining Kit (Mirus Bio, Madison, WI, USA) following the manufacturer’s protocols. In brief, the infected cells were washed with phosphate-buffered saline (PBS) and fixed using a Cell Fixative Working solution. The cells were washed with PBS and stained using the Cell Staining Working Solution containing X-gal. The infected blue-colored cells were counted under a microscope (100× magnification). The infectious virus titer was determined as a mean value of blue-colored cells count × dilution factor and used for determining the multiplicity of infection (MOI) in each infection experiment.

[2] = tested on: NNRTI-resistant HIV-1 strain 12243; assay: microbe, parasite or virus in culture; format: cell-based; settings: Human immunodeficiency virus 1, TZM-bl
Description: as §1, §2

HIV-1NL4-3 [3] = assay: HIV-1 infectivity in TZM-bl cells (F-Luc); format: cell-based; settings: for EC50: read-out: EC50
[4] = tested on: general cellular transcription/translation (R-Luc); assay: Dual-reporter assay, R-Luc in bl-DTR cells; format: cell-based; settings: doxycycline, 24 h
Description: (§3) Fig 1 (A) (Top panel) Schematic representation of the primary compound screening using a dual-reporter system. […] (B). […] (Top graphs) bl-DTR cells (1 × 10^4) were treated with twofold serial dilutions of each compound before doxycycline (Dox) addition (final concentration, 50 ng/mL). After 24 h of treatment, the activities of firefly luciferase (F-Luc, red line) and Renilla luciferase (R-Luc, blue line) were determined using the Dual-Glo Luciferase assay system. (Bottom graphs) TZM-bl cells were treated with each indicated compound and subsequently infected with the HIV-1NL4-3 strain at a multiplicity of infection (MOI) of 1. At 48 h after infection, the viral infectivity (purple line) and cell viability (green line) were determined using the Bright-Glo luciferase assay kit and the PrestoBlue Cell Viability Reagent, respectively. […] (C). […] The targeted moieties for the SAR study are marked with dotted-circle lines.
as §2

[5] = tested on: Tat-mediated LTR transcription; assay: Dual-reporter assay, F-Luc (Tat-mediated LTR transcription) in bl-DTR cells; format: cell-based, HIV-1; settings: bl-DTR cells, doxycycline 50 ng/mL, 24 h; mean ± SD; read-out: IC50 of F-Luc (Tat)
Description: as §3, §2

TZM-bl cells = assay: Cell viability of TZM-bl cells (PrestoBlue); format: cell-based
Description: The TZM-bl cells (also referred to as JC53BL-13) expressing human CD4, CXCR4, and CCR5 carrying the F-Luc and lacZ genes downstream of the HIV-1 LTR promoter ([60]) were used to determine the inhibitory effect of the compounds on HIV-1 infection, as previously described ([11], [12], [61]). In brief, 1 × 10^4 cells were cultured in 96-well plates for 24 h and subsequently treated with compounds at the indicated concentrations. Without replacement of the culture medium, the cells were subsequently infected with the HIV-1NL4-3 wild-type or ARV-resistant HIV-1 strains at an MOI of 1 to determine the exact inhibitory effect of compounds on a single-round infection. After 48 h, the inhibitory effect of the compounds was determined using a Bright Glo luciferase assay kit (Promega) or β-Galactosidase Enzyme Assay kit (Promega). The infectivity data were presented as a percentage relative to the dimethyl sulfoxide (DMSO) control (vehicle). Cell viability was determined using the resazurin-based PrestoBlue Cell Viability Reagent (Thermo Fisher Scientific, Waltham, MA, USA) following the manufacturer’s instructions.

[6] = tested on: proviral DNA integrated to the host chromosome; assay: Integrated proviral DNA, nested Alu-PCR in A3.01 cells; format: cell-based, HIV-1; settings: compounds 5 µM, 40 h after infection
Description: (§4) Fig 5 (A) Time-of-addition assay. […] Subsequently, the cells were treated with the compounds at the indicated time points (0, 1, 2, 4, 6, 8, 10, 12, 24, 30, 36, 42, and 48 h) after HIV-1 infection. The final concentrations of compounds are described in Materials and Methods. Viral activity according to the timing of drug addition was measured as F-Luc activity at 54 h after infection. The relative activities are represented as the mean ± SD (n = 3) compared with the activity observed 54 h post-infection. The relative time frames associated with each HIV-1 infection step are defined based on the time frame of susceptibility to the drug that blocks that particular infection step. […] At 16 h after infection, the viral reverse transcription (RT) product (viral cDNA) level was determined by quantitative real-time PCR (RT-qPCR) using gag and 18S rRNA primer sets and represented as the mean ± SD (n = 3) normalized against the amount of the 18S rRNA compared with the DMSO control. **P < 0.01 compared with the vehicle (DMSO). (C) An in vitro integrase (IN) assay was performed with 10 µM of the indicated compounds following the manufacturer’s protocol. **P < 0.01 compared with vehicle (DMSO). (D) A3.01 cells were infected with HIV-1 upon treatment with the indicated compounds (5 µM) and ARVs (EFV and DTG) as the experimental controls. At 40 h after infection, cellular chromosomal DNA was purified, and the integrated proviral DNA was detected through nested Alu-PCR amplification.
The activity of HIV-1 RT was determined as previously described with some minor modifications ([66][–][68]). In brief, HIV-1NL4-3 obtained from plasmid transfection was treated with DNase I (2.5 U/mL) for 2 h at 37°C to remove the plasmid DNA. […] Sixteen hours after infection, the cell cytosolic DNA was isolated under RNase A treatment, and the RT products (cytosolic viral cDNA) were quantified using RT-qPCR and the following primers: gag forward, 5′-[…]-3′, gag reverse, 5′-[…]-3′; 18S rRNA forward, 5′-[…]-3′, 18S rRNA reverse, 5′-[…]-3′. The relative levels of RT products were analyzed using the ΔΔCt-method, as described above. In vitro integrase activity was determined using an HIV-1 integrase assay kit (XpressBio, Frederick, MD, USA) as previously described ([12]). In brief, a 96-well plate coated with donor substrate DNA was blocked, and HIV-1 integrase was then added to the plate. Subsequently, the compounds and target substrate DNA were added to the plate and incubated for 30 min at 37°C. The plate was washed and subsequently incubated with horse radish peroxidase. Integrase activity was measured by the peroxidase activity with the substrate at an optical density of 450 nm. The experiment was performed in triplicates. Detection of integrated proviral DNA was performed as previously described ([69]) with some minor modifications. […] Chromosomal DNA was purified using the G-Spin DNA extraction kit (Intron Bio Tech, Seongnam-si, Gyeonggi-do, Republic of Korea). The integrated proviral HIV-1 DNA was detected by nested Alu-PCR amplification using the following primers: first round PCR, Alu forward, 5′-[…]-3′, pol reverse, 5′-[…]-3′; second round PCR, gag forward, 5′-[…]-3′, pol reverse. gapdh was used as the control gene.

HIV-1 transcripts = assay: RNA-seq of HIV-1 transcripts in infected TZM-bl cells; format: cell-based; settings: HIV-1NL4-3 MOI 1, 1.5 µM, 2 days
Description: At 48 h after infection, the total RNA was extracted using the Maxwell RSC simplyRNA Cells Kit (Promega) according to the manufacturer’s instructions. RNA integrity was evaluated as RNA integrity number >6 using the Agilent 2100 Bio-analyzer (Agilent Technologies, Santa Clara, CA, USA). The cDNA libraries were constructed using TruSeq Stranded mRNA Sample Preparation Kit (Illumina, San Diego, CA, USA) according to the manufacturer’s instructions. Subsequently, these cDNA libraries were sequenced on the Illumina sequencing platform (NovaSeq6000; Illumina) and 150 bp paired-end reads were generated. Trimmomatic (v.0.32) was used to eliminate low-quality reads and adapter sequences from the sequencing data ([64]). Subsequently, the filtered reads were aligned to the HIV-1 genome (accession: AF324493.2) using STAR (v.2.3.0) ([65]). RT-qPCR analyses were performed as previously described ([66]) with some minor modifications. […] After infection, the infected cells were treated with 1.5 µM of the compounds. Forty-eight hours after treatment, the viral mRNA was isolated, converted to cDNA, and quantified through RT-qPCR on a 7500 Real-Time PCR System (Applied Biosystems) using the Power SYBR Green PCR Master Mix (Applied Biosystems). The comparative cycle threshold (Ct) method was used to analyze relative changes (Δ) in gene expression. The ΔCt values were determined using a 7500 Real-Time PCR System Software (Applied Biosystems) normalizing with gapdh, and the gene expression was calculated using the ΔΔCt-method. The primers used in this assay are the following: gag forward, 5′-[…]-3′, gag reverse, 5′-[…]-3′; gapdh forward, 5′-[…]-3′, gapdh reverse, 5′-[…]-3′.

[7] = tested on: HIV-1NL4-3 IRES-eGFP-nef+; assay: eGFP-encoding HIV-1 infection of TZM-bl cells; format: cell-based; settings: 9, 10, 13 1.5 μM, 20, 21, 22 4 μM, seliciclib 10 µM, triptolide 5 nM, DTG 2 nM, EFV 2 nM, 2 days
[8] = tested on: INSTI-resistant HIV-1 strain 11849; assay: microbe, parasite or virus in culture; format: cell-based; settings: Human immunodeficiency virus 1, TZM-bl
Description: as §1, §2

[9] = tested on: INSTI-resistant HIV-1 strain 11847; assay: microbe, parasite or virus in culture; format: cell-based; settings: Human immunodeficiency virus 1, TZM-bl
Description: as §1, §2

HIV-1NL4-3 [10] = assay: Time-of-addition assay in TZM-bl cells; format: cell-based; settings: HIV-1NL4-3 MOI 1, 9 and 13 1.5 μM, T-20 1 µM, triptolide 5 nM, ARVs 1 µM, F-Luc at 54 h
Description: as §4
A time-of-addition assay was performed as previously described ([25]) with minor modifications. […] Reference drug and test compounds were subsequently added at the indicated time (0, 1, 2, 4, 6, 8, 10, 12, 24, 30, 36, 42, and 48 h after infection). Final concentrations were as follows: compounds 9 and 13 (1.5 μM), T-20 (1 µM), Triptolide (5 nM), and ARVs (AZT, EFV, DTG, RAL) (1 µM). The viral activity according to the timing of drug addition was measured using a Bright Glo luciferase assay kit (Promega). Virus activity curves present a % activity relative to the activity observed at 54 h after infection, and the data are presented as the mean ± standard deviation (SD) (n = 3). The relative time frame associated with each HIV-1 infection step was defined based on the sensitivity to each drug that blocks a particular infection step.

Cc1ccnc2c1NC(=O)c1cccnc1N2C1CC1 [NVP, nevirapine, reference compound]
EC50 [1]: > 100 µM | EC50 [2]: 23.9 ± 2.3 µM | EC50 (HIV-1NL4-3 [3]; Human immunodeficiency virus 1, TZM-bl, 48 h, Table S1, WT virus, TZM-bl, fivefold serial dilutions, MOI 1, 48 h): 0.06 µM

5-(2,3-Dimethyl-1H-indol-5-yl)-4-phenethyl-4H-1,2,4-triazole-3-thiol [Compound 29]
Relative R-Luc activity at IC50 of F-Luc [4]: 90 | IC50 [5]: 0.43 ± 0.03 µM | CC50 (TZM-bl cells; TZM-bl cells, absence of HIV-1 infection, mean ± SD, read-out: CC50): 64.1 ± 6.31 µM | SI (CC50/EC50) (HIV-1NL4-3 [3]; TZM-bl cells): 164.33 | EC50 (HIV-1NL4-3 [3]; TZM-bl cells infected with HIV-1NL4-3 at MOI 1, 48 h, F-Luc, mean ± SD): 0.39 ± 0.03 µM

Cc1[nH]c2ccc(-c3nnc(S(=O)(=O)C(C)C(=O)N4CCCC4)o3)cc2c1C (centres unmarked) [Compound 21, 2-((5-(2,3-Dimethyl-1H-indol-5-yl)-1,3,4-oxadiazol-2-yl)sulfonyl)-1-(pyrrolidin-1-yl)propan-1-one]
nested Alu-PCR band for integrated proviral DNA [6]: observed | read counts of transcripts mapped to the HIV-1 genome (HIV-1 transcripts): not observed | inhibition of viral-expressed eGFP signal [7]: did not

Cc1[nH]c2ccc(-c3nnc(SC(C)C(=O)N4CCCC4)n3CCc3ccccc3)cc2c1C (centres unmarked) [Compound 32, 2-((5-(2,3-Dimethyl-1H-indol-5-yl)-4-phenethyl-4H-1,2,4-triazol-3-yl)thio)-1-(pyrrolidin-1-yl)propan-1-one]
Relative R-Luc activity at IC50 of F-Luc [4]: 90 | CC50 (TZM-bl cells; human, 48 h): 63.20 ± 2.65 µM

Cc1nnc(C(=O)NC(C)(C)c2nc(C(=O)NCc3ccc(F)cc3)c(O)c(=O)n2C)o1 [RAL, raltegravir, reference compound]
EC50 [8]: 14.3 ± 2.59 µM | EC50 [9]: 4.99 ± 0.2 µM | time of administration after infection at which effectiveness began to decrease / was lost (HIV-1NL4-3 [10]): 10 h | EC50 (HIV-1NL4-3 [3]; Human immunodeficiency virus 1, TZM-bl, Table S1, WT virus, TZM-bl): < 0.001 µM
